Source: PubChem BioAssay (NCI)
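Interpolation was linear, between the two tested concentrations surrounding the appropriate level; five concentrations were tested over 48 hours in 96-well plates. TGI: total growth inhibition.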

What was measured:
Assay in all cases: growth of human tumour cells (NCI), 48 h
[1] = tested on: 786-0 renal
[2] = tested on: A498 renal
[3] = tested on: A549 NSCLC
[4] = tested on: ACHN renal
[5] = tested on: BT-549 breast
[6] = tested on: CAKI-1 renal
[7] = tested on: CCRF-CEM leukemia
[8] = tested on: COLO 205 colon
[9] = tested on: DU-145 prostate
[10] = tested on: EKVX NSCLC
[11] = tested on: HCC-2998 colon
[12] = tested on: HCT-116 colon
[13] = tested on: HCT-15 colon
[14] = tested on: HL-60(TB) leukemia
[15] = tested on: HOP-62 NSCLC
[16] = tested on: HOP-92 NSCLC
[17] = tested on: HS 578T breast
[18] = tested on: HT29 colon
[19] = tested on: IGROV1 ovarian
[20] = tested on: K-562 leukemia
[21] = tested on: KM12 colon
[22] = tested on: LOX IMVI melanoma
[23] = tested on: M14 melanoma
[24] = tested on: MALME-3M melanoma
[25] = tested on: MCF7 breast
[26] = tested on: MDA-MB-231 breast
[27] = tested on: MDA-MB-435
[28] = tested on: MOLT-4 leukemia
[29] = tested on: NCI-H226 lung
[30] = tested on: NCI-H23 lung
[31] = tested on: NCI-H460 lung
[32] = tested on: NCI-H522 lung
[33] = tested on: NCI/ADR-RES ovarian
[34] = tested on: OVCAR-3 ovarian
[35] = tested on: OVCAR-4 ovarian
[36] = tested on: OVCAR-5 ovarian
[37] = tested on: OVCAR-8 ovarian
[38] = tested on: PC-3 prostate
[39] = tested on: RPMI-8226 leukemia
[40] = tested on: RXF 393 renal
[41] = tested on: SF-268 CNS
[42] = tested on: SF-295 CNS
[43] = tested on: SF-539 CNS
[44] = tested on: SK-MEL-2 melanoma
[45] = tested on: SK-MEL-28 melanoma
[46] = tested on: SK-MEL-5 melanoma
[47] = tested on: SK-OV-3 ovarian
[48] = tested on: SN12C renal
[49] = tested on: SNB-19 CNS
[50] = tested on: SNB-75 CNS
[51] = tested on: SR leukemia
[52] = tested on: SW-620 colon
[53] = tested on: T-47D breast
[54] = tested on: TK-10 renal
[55] = tested on: U251 CNS
[56] = tested on: UACC-257 melanoma
[57] = tested on: UACC-62 melanoma
[58] = tested on: UO-31 renal

## Cn1ccnc1Sc1ccc(/C=N\NC(=O)c2cccc(F)c2)cc1[N+](=O)[O-]
[1]
  TGI: > 100 µM
[2]
  TGI: 65.7 µM
[3]
  TGI: > 100 µM
[4]
  TGI: > 100 µM
[5]
  TGI: > 100 µM
[6]
  TGI: > 100 µM
[7]
  TGI: > 100 µM
[8]
  TGI: > 100 µM
[9]
  TGI: > 100 µM
[10]
  TGI: > 100 µM
[11]
  TGI: > 100 µM
[12]
  TGI: > 100 µM
[13]
  TGI: > 100 µM
[14]
  TGI: > 100 µM
[15]
  TGI: > 100 µM
[16]
  TGI: 63.7 µM
[17]
  TGI: 70.6 µM
[18]
  TGI: > 100 µM
[19]
  TGI: 53 µM
[20]
  TGI: > 100 µM
[21]
  TGI: > 100 µM
[22]
  TGI: > 100 µM
[23]
  TGI: > 100 µM
[24]
  TGI: > 100 µM
[25]
  TGI: 91.5 µM
[26]
  TGI: > 100 µM
[27]
  TGI: > 100 µM
[28]
  TGI: > 100 µM
[29]
  TGI: > 100 µM
[30]
  TGI: > 100 µM
[31]
  TGI: > 100 µM
[32]
  TGI: 72.1 µM
[33]
  TGI: > 100 µM
[34]
  TGI: > 100 µM
[35]
  TGI: > 100 µM
[36]
  TGI: > 100 µM
[37]
  TGI: 63.5 µM
[38]
  TGI: 63.2 µM
[39]
  TGI: > 100 µM
[40]
  TGI: 94.3 µM
[41]
  TGI: 53.9 µM
[42]
  TGI: > 100 µM
[43]
  TGI: 66.4 µM
[44]
  TGI: > 100 µM
[45]
  TGI: > 100 µM
[46]
  TGI: > 100 µM
[47]
  TGI: 89.8 µM
[48]
  TGI: > 100 µM
[49]
  TGI: 77.1 µM
[50]
  TGI: 59.5 µM
[51]
  TGI: > 100 µM
[52]
  TGI: > 100 µM
[53]
  TGI: > 100 µM
[54]
  TGI: > 100 µM
[55]
  TGI: 43.7 µM
[56]
  TGI: > 100 µM
[57]
  TGI: > 100 µM
[58]
  TGI: > 100 µM
